Measurements: the NIST ThermoML archive (doi:10.1016/j.fluid.2014.02.004)

Experiment: osmotic coefficient (dimensionless); mn = molality of the nth substance listed, in mol/kg
Details: 298.15 K, 101 kPa, Liquid, isopiestic method

NCCC(=O)O [3-aminopropanoic acid] + O
Details | osmotic coefficient
m1 = 0.1408 | 0.9912
m1 = 0.2482 | 0.9892
m1 = 0.335 | 0.988
m1 = 0.452 | 0.9882
m1 = 0.6148 | 0.9901
m1 = 0.6813 | 0.9905
m1 = 0.9542 | 0.9934
m1 = 1.43 | 1.0056

NCCCC(=O)O [4-aminobutanoic acid] + O
Details | osmotic coefficient
m1 = 0.1412 | 0.9884
m1 = 0.249 | 0.986
m1 = 0.3355 | 0.9866
m1 = 0.453 | 0.986
m1 = 0.6155 | 0.9889
m1 = 0.6809 | 0.991
m1 = 0.944 | 1.0041
m1 = 1.402 | 1.026

NCCCCC(=O)O [5-aminovaleric acid] + O
Details | osmotic coefficient
m1 = 0.1414 | 0.987
m1 = 0.2493 | 0.9848
m1 = 0.3362 | 0.9845
m1 = 0.4531 | 0.9858
m1 = 0.618 | 0.9849
m1 = 0.6834 | 0.9874
m1 = 0.9461 | 1.0019
m1 = 1.397 | 1.029

NCCCCCC(=O)O [6-aminohexanoic acid] + O
Details | osmotic coefficient
m1 = 0.1411 | 0.9889
m1 = 0.2493 | 0.9848
m1 = 0.3366 | 0.9833
m1 = 0.4538 | 0.9843
m1 = 0.617 | 0.9865
m1 = 0.6826 | 0.9886
m1 = 0.9388 | 1.0097
m1 = 1.388 | 1.036
